Km data for one molecule are collected here from article PMC2928168, “Na^+-stimulated ATPase of alkaliphilic halotolerant cyanobacterium Aphanothece halophytica translocates Na^+ into proteoliposomes via Na^+ uniport mechanism” (BMC Biochemistry, 2010).

The test system of this assay is T1, Na+-stimulated ATPase (likely F1F0-ATPase).
T1 construct: gene atpD
Description: inorganic phosphate release, Lineweaver-Burk plot. Format: biochemical, Aphanothece halophytica. The settings on record: 20 mM Tris-HCl pH 7.6, 5 mM MgCl2, 10 mM NaCl; detergent-solubilised enzyme; read-out: apparent Km.

For orientation: Km means the concentration of substrate that gives half-maximal velocity. Take `Nc1ncnc2c1ncn2[C@@H]1O[C@H](COP(=O)(O)OP(=O)(O)OP(=O)(O)O)[C@@H](O)[C@H]1O` [ATP]: the Km amounted to 1200 µM.
